Holding throughout (assay type): in vivo
The test system of assay [1] is Alopecurus myosuroides (ALOMY). Put plainly: Pre-emergence herbicidal activity, glasshouse pot test. The following applies: Alopecurus myosuroides, 312 h; Rate 250 g/ha; pre-emergence spray; evaluated after 13 days; read-out: Pre-emergence activity ALOMY (100=total damage to plant; 0=no damage to plant). In short, it runs like this:
(§1)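 Visual damage (0 = no damage, 100 = total damage) was rated 13 days after spraying. Treatment was applied one day after sowing for pre-emergence, or after 8 days of cultivation for post-emergence, as aqueous spray of an acetone/water (50:50) formulation with 0.5% Tween 20.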

For assay [2], the system named is Avena fatua (AVEFA). Described as above. Particulars: Avena fatua, 312 h; Rate 250 g/ha; pre-emergence spray; evaluated after 13 days; read-out: Pre-emergence activity AVEFA (100=total damage to plant; 0=no damage to plant). In short, it runs like this:
as §1

The subject of assay [3] is Echinochloa crus-galli (ECHCG). The description is as above. The following applies: Echinochloa crus-galli, 312 h; Rate 250 g/ha; pre-emergence spray; evaluated after 13 days; read-out: Pre-emergence activity ECHCG (100=total damage to plant; 0=no damage to plant). In short, it runs like this:
as §1

Assay [4] relates to Lolium perenne (LOLPE). The assay is described as above. Particulars: Lolium perenne, 312 h; Rate 250 g/ha; pre-emergence spray; evaluated after 13 days; read-out: Pre-emergence activity LOLPE (100=total damage to plant; 0=no damage to plant). In short, it runs like this: as §1
For assay [5], the system named is Alopecurus myosuroides (ALOMY). The assay can be described thus: Post-emergence herbicidal activity, glasshouse pot test. Particulars: Alopecurus myosuroides, 312 h, rate 250 g/ha, evaluated after 13 days, glasshouse, read-out: Post-emergence activity ALOMY (100=total damage to plant; 0=no damage to plant). In short, it runs like this:
as §1

Assay [6] has as its system Avena fatua (AVEFA). Described as above. Particulars: Avena fatua, 312 h, rate 250 g/ha, evaluated after 13 days, glasshouse, read-out: Post-emergence activity AVEFA (100=total damage to plant; 0=no damage to plant). Put shortly: as §1
In assay [7] the test system is Echinochloa crus-galli (ECHCG). The assay is described as above. The following applies: Echinochloa crus-galli, 312 h, rate 250 g/ha, evaluated after 13 days, glasshouse, read-out: Post-emergence activity ECHCG (100=total damage to plant; 0=no damage to plant). Put shortly: as §1
For assay [8], the system named is Lolium perenne (LOLPE). The description is as above. The following applies: Lolium perenne, 312 h, rate 250 g/ha, evaluated after 13 days, glasshouse, read-out: Post-emergence activity LOLPE (100=total damage to plant; 0=no damage to plant). Put shortly:
as §1

For `CCc1ccc(Oc2nc3cc4c(cc3s2)OCCO4)cc1C1=C(O)C(C)(C)OC(C)(C)C1=O` [Example A-215], the pest or weed control at 250 g/ha is 0% in assay [1]; 0% in the assay with Avena fatua (AVEFA) [2]; 20% in assay [3]; 0% in the assay with Lolium perenne (LOLPE) [4]; 10% in assay [5]; 0% in the assay on Avena fatua (AVEFA) [6]. For the same molecule, the pest or weed control at 250 g/ha was determined as 40% in assay [7] and 20% in the assay with Lolium perenne (LOLPE) [8].
As to `CCc1ccc(Oc2cnc3cc(Cl)ccc3n2)cc1C1=C(O)CC(C)(C)CC1=O` [Example A-82], the pest or weed control at 250 g/ha was determined as 70% in assay [1]; 90% with Avena fatua (AVEFA) [2]; 100% in assay [3]; 100% in the assay on Lolium perenne (LOLPE) [4]; 100% in assay [5]; 100% in the assay with Avena fatua (AVEFA) [6]. Moreover, the results for the pest or weed control at 250 g/ha (in assay [7]; in the assay with Lolium perenne (LOLPE) [8]) were 100% and 90%, respectively.
For `CCc1ccc(Oc2ccc(F)c(C(F)(F)F)c2)cc1C1=C(O)C(C)(C)OC(C)(C)C1=O` [Example A-178], the pest or weed control at 250 g/ha in assay [1] came out at 10%; in the assay on Avena fatua (AVEFA) [2], 0%; in assay [3] it was 10%; with Lolium perenne (LOLPE) [4], 0%; in assay [5], 40%; with Avena fatua (AVEFA) [6] it was 40%. Further, the pest or weed control at 250 g/ha in assay [7] was 80%; with Lolium perenne (LOLPE) [8], 30%.
As to `CCc1ccc(Oc2ncc(Cl)cn2)cc1C1=C(O)C(C)(C)OC(C)(C)C1=O` [Example A-107], the pest or weed control at 250 g/ha in assay [1] came out at 90%; in the assay on Avena fatua (AVEFA) [2] it was 80%; in assay [3] it was 100%; with Lolium perenne (LOLPE) [4], 100%; in assay [5] it was 80%; in the assay with Avena fatua (AVEFA) [6] it was 80%. The pest or weed control at 250 g/ha was determined as 100% in assay [7] and 40% in the assay with Lolium perenne (LOLPE) [8].
Consider `CCc1ccc(Oc2ccc([N+](=O)[O-])c(C)c2)cc1C1=C(O)C(C)(C)OC(C)(C)C1=O` [Example A-200], for which the pest or weed control at 250 g/ha in assay [1] came to 20%; with Avena fatua (AVEFA) [2], 0%; in assay [3], 50%; in the assay with Lolium perenne (LOLPE) [4], 60%; in assay [5], 70%; with Avena fatua (AVEFA) [6] it was 10%. For the same molecule, the pest or weed control at 250 g/ha was 90% in assay [7] and 70% in the assay on Lolium perenne (LOLPE) [8].
Regarding `CCc1ccc(Oc2cc(F)c(C#N)c(F)c2)cc1C1=C(O)C(C)(C)OC(C)(C)C1=O` [Example A-207], the pest or weed control at 250 g/ha turned out to be 30% in assay [1]; 10% in the assay on Avena fatua (AVEFA) [2]; 70% in assay [3]; 60% with Lolium perenne (LOLPE) [4]; 80% in assay [5]; 80% in the assay on Avena fatua (AVEFA) [6]. Besides, the figures for the pest or weed control at 250 g/ha (in assay [7]; in the assay on Lolium perenne (LOLPE) [8]) were 100% and 90%, respectively.
